Earlier results as cited in JP2018030810A, “ゲフィチニブを有効成分とする医薬錠剤の製造方法” (Nippon Kayaku Co Ltd, priority 2016, dated 2018).
In brackets after ≈: the same amount, converted by molar mass. Like-named read-outs stand apart in the source and are kept apart here.

In the case of `COc1cc2ncnc(Nc3ccc(F)c(Cl)c3)c2cc1OCCCN1CCOCC1` [ゲフィチニブ, N−(3−クロロ−4−フルオロフェニル)−7−メトキシ−6−[3−(モルフォリン−4−イル)プロポキシ]キナゾリン−4−アミン], the “solubility (in words)” value (pH1) is listed as “可溶性”, the “solubility (in words)” value (pH4〜6) is listed as “溶解度は大きく低下” and the solubility (pH6) is listed as roughly 1000 µg/mL (≈ 2240 µM). The “solubility (in words)” value (pH7) was “実質的に不溶性”, the “aqueous solubility (in words)” value (small intestine environment, pH4〜8) was “水溶解度が極端に低下する” and the “aqueous solubility (in words)” value (stomach, acidic environment pH1〜4) was “良好な水溶解度”. For the same compound, the “solubility (in words)” value (water) was “ほとんど溶解しない”.
